From paper PMC4848905, “Fragment Screening of Human Aquaporin 1” (International Journal of Molecular Sciences, 2016)
Where two headings read alike, the source gives them in different places.

T1: hAQP1 (Homo sapiens, UniProt P29972)
T1 construct: made in house; host or cells: Spodoptera frugiperda (Sf9) insect cells, baculovirus vector pFB-LIC-Bse
T1 sequence (P29972 1-269): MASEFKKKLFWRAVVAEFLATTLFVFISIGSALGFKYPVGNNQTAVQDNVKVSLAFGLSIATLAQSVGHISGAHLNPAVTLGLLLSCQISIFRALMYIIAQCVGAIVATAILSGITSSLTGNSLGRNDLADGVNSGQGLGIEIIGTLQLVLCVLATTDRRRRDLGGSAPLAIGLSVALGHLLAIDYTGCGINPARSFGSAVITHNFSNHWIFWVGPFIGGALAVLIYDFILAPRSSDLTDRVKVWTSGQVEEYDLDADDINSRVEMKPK

T2: E. coli aquaporin Z (E. coli), P60844
T2 chain: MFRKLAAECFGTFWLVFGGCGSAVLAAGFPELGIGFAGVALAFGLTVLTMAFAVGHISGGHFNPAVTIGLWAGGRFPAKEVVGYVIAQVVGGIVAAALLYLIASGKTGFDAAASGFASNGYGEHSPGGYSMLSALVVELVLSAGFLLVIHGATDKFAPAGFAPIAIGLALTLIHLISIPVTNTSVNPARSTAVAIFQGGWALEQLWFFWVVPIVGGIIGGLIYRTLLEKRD


Assays:
hAQP1 [1] = molecular target: T1, hAQP1; test: Surface plasmon resonance (SPR) fragment binding to immobilized hAQP1; conditions: for SPR binding behaviour: sensorgrams 6.25 to 800 µM
Experimental: Surface Plasmon Resonance measurements were performed using Biacore T-200 (GE Healthcare, Uppsala, Sweden) using the running buffer PBS pH 7.4 supplemented with 1% OG and 5% dimethylsulfoxide (DMSO) at 25 °C. Purified recombinant hAQP1 was directly immobilized onto Biacore Sensor Chip CM5 Research Grade (GE Healthcare, Little Chalfont, UK) using standard amine-coupling chemistry at a flow rate of 5 µL/min. Carboxyl derivatives on CM5 dextran surface were activated with a 10-min 1:1 mixture of 0.2 M N-ethyl-N′-(3-([…])propyl)carbodiimide (EDC) and 50 mM N-hydroxysuccinimide (NHS). The aquaporins were diluted in 10 mM sodium acetate, pH 5.0 and injected across the surface separately. Addition of 0.5 M ethanolamine–HCl at pH 8.5 for 10 min was used to block unreacted activated carboxyl derivates.
The Maybridge Ro3 Diversity Fragment Library (Thermo Fisher Scientific, Waltham, MA, USA) consisting of 1500 fragments was used for screening. These fragments have molecular weight ranging from 82.1 to 295.3 Da, with an experimental guarantee of solubility of ≥1 mM in aqueous phosphate buffer and ≥200 mM in DMSO. They satisfy the “rule of three” criteria, i.e., a molecular weight of ≤300 Da, a cLogP of ≤3.0, ≤3 H-bond acceptors or H-bond donors, ≤3 rotatable bonds, and a polar surface area of ≤60 Å^2. Lyophilized powder of each fragments were pre-dissolved in 100% DMSO prior to the screening campaign. A volume of 10 µL of a 4 mM stock solution of each fragment in 100% DMSO was added to 190 µL of a buffer composed of 1.06 × PBS + 1.06% OG so as to obtain a final fragment concentration of 200 µM in PBS + 1% OG + 5% DMSO in a volume of 200 µL. We note that although a higher screening concentration in the mM range would in principle result in higher protein surface occupancy, allowing the detection of weaker interactions, this may also increase the probability of non-specific binding and/or promiscuously binding colloidal aggregates. In addition, the presence of salt and detergent in the buffer helps to stabilize the hAQP1 and also reduces the chances of non-specific binding. The DMSO solvent has a high refractive index and can be a major cause of false positives and plate-to-plate baseline variations. Therefore, it was important to accurately match its concentration in the sample buffer and the running buffer throughout the screening to minimize data inconsistencies during analysis.
The fragments were injected across a reference channel and hAQP1 channel for 2 min at flow rate of 30 µL/min, and then allowed to dissociate in running buffer for another min. Each fragment was injected in duplicates. DMSO calibration was performed for DMSO correction. Reproducibility was monitored with duplicate injections of each sample. No regeneration step was necessary as all fragments were dissociated. Previously validated positive controls, NSC226080 and NSC624169 (not shown), were included over the course of screening to monitor the surface protein activity.
These fragments, together with the positive controls, were diluted into 25, 50, 100 and 200 µM and tested over the same surfaces under the same conditions. DMSO calibration was performed for DMSO correction. Non-stoichiometric binders (potential fragments that aggregate, precipitate, binding non-specifically, etc.) were excluded. Good binders were assayed in a broader concentration range from 6.25 to 800 µM in 2-fold dilutions under the same conditions.
Raw sensorgrams were corrected for DMSO and double referenced (subtraction of the reference flow cell followed by subtraction of the closest buffer blank), which responses were corrected with a reference flow cell and a blank buffer injections. Corrected sensorgrams were y-axis and x-axis corrected at the point of fragment injection. Responses for the varied concentrations for a fragment were overlaid. […]

hAQP1 [2] = molecular target: T1, hAQP1; test: Thermal aggregation shift assay (differential static light scattering, DSLS); type: binding; design: key to ΔTagg (+/−): positive (+) Thermal Shift; ΔTagg (+/−); conditions: for ΔTagg (+/−): 1 mM of each fragment; for Tagg: hAQP1 incubated in 1 mM of fragment, hAQP1 alone 54.6 ± 0.1; for dose-dependency of hAQP1 stabilization: increasing concentration of fragment; for Tagg of hAQP1: secondary dose-response assay
Experimental: Temperature-dependent protein aggregation was measured with static light scattering (Stargazer-384, Harbinger Biotech, Markham, ON, Canada) as previously described with modifications. Briefly, purified hAQP1 in PBS pH 7.4 and 1% OG at a concentration of 0.2 mg/mL, incubated with test compound or fragment at the appropriate concentration at room temperature for 15 min, and aliquoted in a clear-bottom 384-well plate (Nunc, Roskilde, Denmark) to a volume of 45 µL in triplicate. The final concentration of DMSO was kept at 5%. Mineral oil (45 µL) covered the sample to prevent evaporation. The sample was heated from 25 to 80 °C at a rate of 1 °C per minute. Incident light was shone on the protein drop from beneath at a 30° angle, and a CCD camera was used to measure the scattered light intensity every 30 s to monitor protein aggregation. Data collated was analyzed using the Bioactive software (Harbinger Biotech). Intensities were plotted as a function of temperature and fitted to the Boltzmann equation by non-linear regression. The point of inflection of the fitted curve defined the temperature of aggregation (Tagg).

human red blood cells = test: Stopped-flow water permeability assay using human red blood cells; type: cell-based; conditions: tested at 1 mM
Experimental: As indicated in the introduction, the binders found should not necessarily show inhibition. Nevertheless, we performed stopped-flow assays to test the effects of the seven fragments in Figure 6 on hAQP1 water permeability using human red blood cells. Based on the values of the rate constants of the scattering increase, none of these fragments produced a significant reduction in water permeability when tested at 1 mM (not shown). Several factors may account for this. […] In addition, hAQP1 in red blood cells is highly glycosylated compared to the hAQP1 purified from insect cells, and this may affect binding affinity. Another factor is the orientation of the protein in the membrane, as in theory only one side of the protein (extracellular) is exposed to the drug in RBC assays, whereas both extramembrane domains are exposed when the protein is solubilized in micelles. Another factor, also noted by Seeliger et al., is the high density of AQP1 at the membrane of red blood cells. […] We are at present unable to explain this behavior or relate it to inhibition of hAQP1.

hAQP1 [3] = molecular target: T1, hAQP1; test: Stopped-flow water permeability assay of hAQP1 proteoliposomes; type: biochemical
Experimental: Liposomes used in this work were prepared using film rehydration. In this procedure, a thin lipid film of Escherichia coli lipids is formed by drying under a nitrogen stream lipid extract powder (Avanti Polar Lipids Inc., Alabaster, AL, USA) in chloroform. After at least 2 h in a vacuum desiccator, purified aquaporin protein in detergent was added and supplemented with reconstitution buffer (20 mM Tris–HCl pH 8.0) to obtain a protein-to-lipid molar ratio of 1:400. A volume of 1 mL of this reconstitution mixture was incubated for 1 h at room temperature. Uniform sized liposomes were obtained by extrusion through a 400 nm pore-size polycarbonate membrane using an Avestin extruder. […]
The water permeability of proteoliposomes reconstituted with purified aquaporin was determined in a SX20 stopped-flow spectrometer (Applied Photophysics, Leatherhead, UK) with a dead time of 1.1 ms. […] The solution osmolarities were measured using a vapor pressure osmometer (Wescor, Logan, UT, USA). […] The measured average diameter of control liposomes and hAQP1-proteoliposomes were 368 and 262 nm, respectively.
Data was acquired by the Pro-Data SX software and analyzed by Pro-Data Viewer software (Applied Photophysics), where the measured light scattering intensity signals were fitted to an exponential function to obtain the rate constants. […]

[4] = molecular target: T2, E. coli aquaporin Z (E. coli), P60844; test: native gel or EMSA; blue-native PAGE (4%-16% Bis-Tris gel, 4 °C) of purified protein in sample buffer with 100 mM OG, 750 mM aminocaproic acid, 50 mM Bis-Tris HCl pH 7.0, 0.5 mM EDTA; conditions: remark: other sources report otherwise
[5] = 1:1 steady-state binding model, 6.25 to 800 µM in 2-fold dilutions, 25 °C, read-out: SPR (KD)
[6] = inset table of the Figure 5 sensorgram, read-out: KD (inset table)

Row | Molecule | Kd (hAQP1 [1]; [5]) [µM] | Kd (hAQP1 [1]; [6]) [µM] | SPR binding behaviour (hAQP1 [1]) | ΔTagg (+/−) (hAQP1 [2]) | Tagg (hAQP1 [2]) [°C] | further results
1 | O=Nc1c(O)ccc2ccccc12 [AC15153] | 337 | 337 |  |  |  | 
2 | Cc1cc2cc(N)ccc2[nH]1 [AC34875] | 225 | 225 | binding did not achieve saturation equilibrium at higher concentrations | − | 50.9 | 
3 | OC1CCCNC1 (stereo not shown) [AC36708] |  |  |  | + | 62.9 ± 0.4 | 
4 | NCCNc1cccc2ccccc12 [AC42399] | 546 |  | fast-on, fast-off kinetics | − | 48.0 | 
5 | NCc1cccc(N2CCCCC2)n1 [CC38113] | 62 | 62.2 |  | + | 63.3 ± 0.1 | amplitude of the stopped-flow traces (human red blood cells): large amplitude reduction in the traces
6 | NCCc1coc2ccccc12 [CC40813] |  |  | binding did not achieve saturation equilibrium at higher concentrations | − | 50.3 | Kd (hAQP1 [1]; KD (inset table), inset table of the Figure 5 sensorgram): 133 µM; Kd (hAQP1 [1]; SPR (KD), 1:1 steady-state binding model, 6.25 to 800 µM in 2-fold dilutions, 25 °C): 133 µM
7 | OCc1cccc(-c2ccco2)c1 [CC46109] | 982 | 982 |  | + |  | amplitude of the stopped-flow traces (human red blood cells): large amplitude reduction in the traces
8 | CNCc1scc2c1OCCO2 [CC47846] |  |  |  | + | 70.0 ± 1.2 | 
9 | NCc1ccc(-c2ccc(C(F)(F)F)cn2)cc1 [CC53013] | 1310 | 1310 | fast-on, fast-off kinetics | − | 48.6 | 
10 | Nc1cccc(CN2CCCC2)c1 [CC55714] |  |  |  | + | 63.6 ± 0.4 | 
11 | [Cl][Hg][Cl] [HgCl2, mercuric chloride] |  |  |  |  |  | average fitted rate constant (k) (hAQP1 [3]; 300 µM, 23 °C, means ± S.E., n = 6, without inhibitor 109.4 (±1.9)): 8.56 (±0.03) s^−1; osmotic water permeability coefficient (Pf) (hAQP1 [3]; proteoliposomes pre-incubated with 300 µM, without inhibitor Pf = 0.053): 0.0041 cm/s
12 | Nc1snnc1-c1ccc(C(F)(F)F)cc1 [MO00656] | > 800 |  | fast-on, fast-off kinetics | − | 51.8 | 
13 | c1ccc2c(c1)CCNCC2 [MO08607] | 962 | 962 |  | + | 59.0 ± 0.3 | dose-dependency of hAQP1 stabilization (hAQP1 [2]): can be considered a true binder; Tagg of hAQP1 (hAQP1 [2]; 50 μM): 61.8 ± 0.6 °C; Tagg of hAQP1 (hAQP1 [2]; 400 µM): 66.3 ± 0.1 °C; Tagg of hAQP1 (hAQP1 [2]; 2000 µM): 86.7 ± 7.2 °C
14 | Nc1ccc2c(c1)OCCO2 [SB00353] | 902 | 902 |  | − | 51.1 | 
15 | NCCNCc1ccccc1 [SB01744] |  |  |  | + | 58.7 ± 0.2 | dose-dependency of hAQP1 stabilization (hAQP1 [2]): could not be interpreted due to inconsistencies in the results
16 | E. coli aquaporin Z, P60844 1-231 (natural protein) MFRKLAAECFGTFWLVFGGCGSAVLAAGFPELGIGFAGVALAFGLTVLTMAFAVGHISGGHFNPAVTIGLWAGGRFPAKEVVGYVIAQVVGGIVAAALLYLIASGKTGFDAAASGFASNGYGEHSPGGYSMLSALVVELVLSAGFLLVIHGATDKFAPAGFAPIAIGLALTLIHLISIPVTNTSVNPARSTAVAIFQGGWALEQLWFFWVVPIVGGIIGGLIYRTLLEKRD |  |  |  |  |  | stoichiometry N [4]: 8
